Data published in patent US8604061B2, “2-aminooxazolines as TAAR1 ligands” (Hoffmann-La Roche Inc., priority 2007, dated 2013).
pKi: −log10 of the molar value. Like-named read-outs stand apart in the source and are kept apart here.

Target: TAAR1 (Mus musculus, UniProt Q923Y8)
Experiment: TAAR1 radioligand binding, membranes of stably transfected HEK293 cells (mouse)
Settings: for Ki: mouse/rat, cell not marked 'rat', radioligand [3H]-rac-2-(1,2,3,4-tetrahydro-1-naphthyl)-2-imidazoline, 4° C., read-out: Ki (μM) mouse/rat
How it was run: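 Competition binding on membranes from HEK293 cells stably expressing the TAAR1 species ortholog, in HEPES-NaOH pH 7.0 with 10 mM MgCl2 and 2 mM CaCl2, 30 min at 4° C with [3H]-rac-2-(1,2,3,4-tetrahydro-1-naphthyl)-2-imidazoline. Competitors 10 pM–30 μM, duplicates; non-specific binding with 10 μM unlabelled ligand; filtration and scintillation counting.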

## NC1=N[C@@H](c2cc(Cl)cc(Cl)c2)CO1 [Example 201, (+)-(S)-4-(3,5-Dichloro-phenyl)-4,5-dihydro-oxazol-2-ylamine]
  Ki: 0.0002 µM

## NC1=NC(c2ccc(Br)cc2F)CO1 (racemic) [Example 349, (RS)-4-(4-Bromo-2-fluoro-phenyl)-4,5-dihydro-oxazol-2-ylamine]
  pKi: 8.64

## NC1=N[C@H](c2cc(Cl)c(Cl)cc2C(F)(F)F)CO1 [Example 243, (−)-(R)-4-(4,5-Dichloro-2-trifluoromethyl-phenyl)-4,5-dihydro-oxazol-2-ylamine]
  Ki: 0.0094 µM

## NC1=N[C@@H](CCc2ccc(Cl)c(Cl)c2)CO1 [Example 127, (S)-4-[2-(3,4-Dichloro-phenyl)-ethyl]-4,5-dihydro-oxazol-2-ylamine]
  Ki: 0.0003 µM

## NC1=N[C@@H](c2ccc(-c3ccccc3)cc2)CO1 [Example 21 (S), (S)-4-Biphenyl-4-yl-4,5-dihydro-oxazol-2-ylamine]
  pKi: 9.10

## NC1=NC(c2ccc(Br)cc2)CO1 (racemic) [Example 20, (RS)-4-(4-Bromo-phenyl)-4,5-dihydro-oxazol-2-ylamine]
  pKi: 9.05

## NC1=N[C@@H](CCc2cccc(C(F)(F)F)c2F)CO1 [Example 142, (S)-4-[2-(2-Fluoro-3-trifluoromethyl-phenyl)-ethyl]-4,5-dihydro-oxazol-2-ylamine]
  Ki: 0.0018 µM

## Cc1ccccc1[C@H]1COC(N)=N1 [39a (S), (S)-4-o-Tolyl-4,5-dihydro-oxazol-2-ylamine]
  pKi: 8.60

## C[C@]1(CCc2ccc(F)cc2)COC(N)=N1 [Example 255, (S)-4-[2-(4-Fluoro-phenyl)-ethyl]-4-methyl-4,5-dihydro-oxazol-2-ylamine]
  Ki: 0.0074 µM

## NC1=N[C@@H](CCc2cccc(C(F)(F)F)c2Cl)CO1 [Example 151, (S)-4-[2-(2-Chloro-3-trifluoromethyl-phenyl)-ethyl]-4,5-dihydro-oxazol-2-ylamine]
  Ki: 0.001 µM

## NC1=N[C@@H](CCc2cccc(C(F)(F)F)n2)CO1 [Example 212, (S)-4-[2-(6-Trifluoromethyl-pyridin-2-yl)-ethyl]-4,5-dihydro-oxazol-2-ylamine]
  Ki: 0.0068 µM

## Cc1ccc(F)c(CC2COC(N)=N2)c1 (racemic) [Example 73, (RS)-4-(2-Fluoro-5-methyl-benzyl)-4,5-dihydro-oxazol-2-ylamine]
  Ki: 0.0089 µM

## COc1ccc(C2COC(N)=N2)cc1Cl (racemic) [Example 36, (RS)-4-(3-Chloro-4-methoxyphenyl)-4,5-dihydro-oxazol-2-ylamine]
  pKi: 8.47

## Cc1cc([C@@]2(C)COC(N)=N2)c(F)cc1Cl [Example 308, (S)-4-(4-Chloro-2-fluoro-5-methyl-phenyl)-4-methyl-4,5-dihydro-oxazol-2-ylamine]
  Ki: 0.0009 µM

## NC1=NC(c2ccc(Cl)cc2Cl)CO1 (racemic) [Example 235, (RS)-4-(2,4-Dichloro-phenyl)-4,5-dihydro-oxazol-2-ylamine]
  pKi: 9.00

## NC1=N[C@@H](c2cc(Cl)ccc2F)CO1 [Example 190, (+)-(S)-4-(5-Chloro-2-fluoro-phenyl)-4,5-dihydro-oxazol-2-ylamine]
  Ki: 0.0008 µM

## NC1=N[C@@H](c2cc(F)c(F)cc2F)CO1 [Example 107, (S)-4-(2,4,5-Trifluoro-phenyl)-4,5-dihydro-oxazol-2-ylamine]
  Ki: 0.004 µM

## NC1=N[C@H](CCc2ccccc2)CO1 [80 (R), (R)-4-phenethyl-4,5-dihydro-oxazol-2-ylamine]
  Ki: 0.0083 µM

## CC[C@]1(c2ccc(Cl)c(Cl)c2)COC(N)=N1 [Example 328, (S)-4-(3,4-Dichloro-phenyl)-4-ethyl-4,5-dihydro-oxazol-2-ylamine]
  Ki: 0.0052 µM

## NC1=N[C@@H](c2cccc(F)c2F)CO1 [Example 9, (S)-4-(2,3-Difluoro-phenyl)-4,5-dihydro-oxazol-2-ylamine]
  Ki: 0.0034 µM

## NC1=N[C@@H](c2ccc(Cl)c(Cl)c2)CO1 [Example 91, (S)-4-(3,4-Dichloro-phenyl)-4,5-dihydro-oxazol-2-ylamine]
  Ki: 0.0006 µM

## NC1=NC(c2ccc(F)cc2C(F)(F)F)CO1 (racemic) [Example 224, (RS)-4-(4-Fluoro-2-trifluoromethyl-phenyl)-4,5-dihydro-oxazol-2-ylamine]
  pKi: 8.20

## CCC(C[C@H]1COC(N)=N1)c1ccc(Cl)c(Cl)c1 (stereo partly drawn) [Example 222, (S)-4-[2-(3,4-Dichloro-phenyl)-butyl]-4,5-dihydro-oxazol-2-ylamine]
  Ki: 0.0048 µM

## NC1=NC(c2ccccc2C(F)(F)F)CO1 (racemic) [Example 6, (RS)-4-(2-Trifluoromethyl-phenyl)-4,5-dihydro-oxazol-2-ylamine]
  pKi: 8.42

## CCC(C[C@H]1COC(N)=N1)c1ccc(F)cc1 (stereo partly drawn) [Example 210, (S)-4-[2-(4-Fluoro-phenyl)-butyl]-4,5-dihydro-oxazol-2-ylamine]
  Ki: 0.0014 µM

## NC1=N[C@@H](c2cc(F)ccc2F)CO1 [Example 101, (S)-4-(2,5-Difluoro-phenyl)-4,5-dihydro-oxazol-2-ylamine]
  Ki: 0.0034 µM

## C[C@]1(CCc2ccccc2)COC(N)=N1 [Example 81 (S), (S)-4-Methyl-4-phenethyl-4,5-dihydro-oxazol-2-ylamine]
  Ki: 0.0064 µM

## NC1=N[C@@H](c2ccc(Br)cc2F)CO1 [Example 367, (+)-(S)-4-(4-Bromo-2-fluoro-phenyl)-4,5-dihydro-oxazol-2-ylamine]
  Ki: 0.001 µM

## NC1=N[C@@H](c2ccc(F)cc2C(F)(F)F)CO1 [Example 248, (+)-(S)-4-(4-Fluoro-2-trifluoromethyl-phenyl)-4,5-dihydro-oxazol-2-ylamine]
  Ki: 0.0029 µM

## NC1=NC(c2ccc(Cl)cc2)CO1 (racemic) [Example 5, (RS)-4-(4-Chloro-phenyl)-4,5-dihydro-oxazol-2-ylamine]
  pKi: 8.68

## C[C@]1(c2ccc(C(F)(F)F)cc2)COC(N)=N1 [Example 147, (S)-4-Methyl-4-(4-trifluoromethyl-phenyl)-4,5-dihydro-oxazol-2-ylamine]
  Ki: 0.0041 µM

## NC1=NC(c2ccc(OCc3ccccc3)cc2)CO1 (racemic) [Example 22, (RS)-4-(4-Benzyloxy-phenyl)-4,5-dihydro-oxazol-2-ylamine]
  pKi: 8.96

## NC1=N[C@@H](CCc2cccc(Cl)c2)CO1 [Example 232, (S)-4-[2-(3-Chloro-phenyl)-ethyl]-4,5-dihydro-oxazol-2-ylamine]
  Ki: 0.0006 µM

## NC1=NC(c2cc(Cl)c(Cl)cc2C(F)(F)F)CO1 (racemic) [Example 234, (RS)-4-(4,5-Dichloro-2-trifluoromethyl-phenyl)-4,5-dihydro-oxazol-2-ylamine]
  pKi: 8.03

## NC1=N[C@@H](CCc2cccc(OC(F)(F)C(F)F)c2)CO1 [Example 141, (S)-4-{2-[3-(1,1,2,2-Tetrafluoro-ethoxy)-phenyl]-ethyl}-4,5-dihydro-oxazol-2-ylamine]
  Ki: 0.0027 µM

## CCC(C[C@H]1COC(N)=N1)c1cccc(Cl)c1F (stereo partly drawn) [Example 355, (S)-4-[2-(3-Chloro-2-fluoro-phenyl)-butyl]-4,5-dihydro-oxazol-2-ylamine]
  Ki: 0.0043 µM

## NC1=NC(c2ccc3c(c2)OCCO3)CO1 (racemic) [Example 32, (RS)-4-(2,3-Dihydro-benzo[1,4]dioxin-6-yl)-4,5-dihydro-oxazol-2-ylamine]
  pKi: 8.54

## NC1=N[C@@H](CC2(c3ccccc3)CC2)CO1 [Example 342, (S)-4-(1-Phenyl-cyclopropylmethyl)-4,5-dihydro-oxazol-2-ylamine]
  Ki: 0.0045 µM

## NC1=NC(C2CCc3ccccc3C2)CO1 (racemic) [Example 84, (RS)-4-(1,2,3,4-Tetrahydro-naphthalen-2-yl)-4,5-dihydro-oxazol-2-ylamine]
  pKi: 8.77

## Cc1ccc(F)cc1C1COC(N)=N1 (racemic) [Example 250, (RS)-4-(5-Fluoro-2-methyl-phenyl)-4,5-dihydro-oxazol-2-ylamine]
  pKi: 8.66

## CCC(C[C@H]1COC(N)=N1)c1ccccc1F (stereo partly drawn) [Example 223, (S)-4-[2-(2-Fluoro-phenyl)-butyl]-4,5-dihydro-oxazol-2-ylamine]
  Ki: 0.0059 µM

## CCc1cc(Cl)ccc1C1COC(N)=N1 (racemic) [Example 344, (RS)-4-(4-Chloro-2-ethyl-phenyl)-4,5-dihydro-oxazol-2-ylamine]
  pKi: 8.60

## COc1ccc([C@H]2COC(N)=N2)cc1Cl [Example 131, (S)-4-(3-Chloro-4-methoxy-phenyl)-4,5-dihydro-oxazol-2-ylamine]
  Ki: 0.0024 µM

## CCC(C[C@H]1COC(N)=N1)c1cc(Cl)ccc1F (stereo partly drawn) [Example 358, (S)-4-[2-(5-Chloro-2-fluoro-phenyl)-butyl]-4,5-dihydro-oxazol-2-ylamine]
  Ki: 0.0084 µM

## NC1=N[C@@H](COc2cccc(Cl)c2)CO1 [Example 343, (S)-4-(3-Chloro-phenoxymethyl)-4,5-dihydro-oxazol-2-ylamine]
  Ki: 0.0028 µM

## C[C@]1(c2ccc(Cl)cc2)COC(N)=N1 [Example 136, (S)-4-(4-Chloro-phenyl)-4-methyl-4,5-dihydro-oxazol-2-ylamine]
  Ki: 0.0038 µM

## NC1=N[C@@H](CCc2ccccc2)CO1 [Example 80 (S), (S)-4-Phenethyl-4,5-dihydro-oxazol-2-ylamine]
  Ki: 0.0008 µM

## NC1=NC(c2cccc(Cl)c2)CO1 (racemic) [Example 185, (RS)-4-(3-Chloro-phenyl)-4,5-dihydro-oxazol-2-ylamine]
  pKi: 8.30

## CC1(c2ccc(F)c(F)c2F)COC(N)=N1 (racemic) [Example 269, (RS)-4-Methyl-4-(2,3,4-trifluoro-phenyl)-4,5-dihydro-oxazol-2-ylamine]
  Ki: 0.0083 µM

## NC1=N[C@@H](CCc2ccc(F)c(F)c2)CO1 [Example 89, (S)-4-[2-(3,4-Difluoro-phenyl)-ethyl]-4,5-dihydro-oxazol-2-ylamine]
  Ki: 0.0013 µM

## CC(C[C@H]1COC(N)=N1)c1cc(F)cc(F)c1 (stereo partly drawn) [Example 202, (S)-4-[2-(3,5-Difluoro-phenyl)-propyl]-4,5-dihydro-oxazol-2-ylamine]
  Ki: 0.0017 µM
